Laboratory results from the NIST ThermoML archive (doi:10.1021/je900134z).

Experiments:
[1] = for mass density / viscosity: 101.33 kPa, Liquid; for viscosity: Surface Light Scattering; for surface tension liquid-gas: Drop weight
[2] = refractive index (Na D-line) (dimensionless); settings: 101.33 kPa, Liquid

CCCCn1cc[n+](CCCC)c1.O=S(=O)([N-]S(=O)(=O)C(F)(F)F)C(F)(F)F
Settings	mass density [kg/m3]	refractive index	surface tension liquid-gas [mN/m]	viscosity [mPa·s]
[1], 273.15 K	1362.73	–	–	277.9
[1], 278.15 K	1358.06	–	–	203
[1], 283.15 K	1353.51	–	–	152.1
[1], 288.15 K	1349.01	–	–	115.3
[1], 293.15 K	1344.5	–	29.55	89.5
[1], 298.15 K	1340.01	–	–	–
[1], 303.15 K	1335.51	–	–	57.2
[1], 308.15 K	1331.02	–	–	–
[1], 313.15 K	1326.56	–	–	37.9
[1], 318.15 K	1322.09	–	–	–
[1], 323.15 K	–	–	–	26.5
[1], 328.15 K	1313.2	–	–	–
[1], 333.15 K	1308.77	–	–	19.2
[1], 338.15 K	1304.36	–	–	–
[1], 343.15 K	1299.99	–	–	–
[1], 348.15 K	1295.57	–	–	–
[1], 353.15 K	1291.2	–	–	–
[1], 358.15 K	1286.84	–	–	–
[1], 363.15 K	1282.5	–	–	–
[2], 283.15 K	–	1.4376	–	–
[2], 293.15 K	–	1.4347	–	–
[2], 303.15 K	–	1.4324	–	–
[2], 313.15 K	–	1.4298	–	–

CCn1cc[n+](C)c1.CS(=O)(=O)[O-] [1-ethyl-3-methylimidazolium methanesulfonate]
Settings	mass density [kg/m3]	refractive index	surface tension liquid-gas [mN/m]	viscosity [mPa·s]
[1], 273.15 K	1259.14	–	–	1112.6
[1], 278.15 K	1255.59	–	–	676.3
[1], 283.15 K	1252.04	–	–	435.5
[1], 288.15 K	1248.49	–	–	290.1
[1], 293.15 K	1244.96	–	50.72	205.2
[1], 298.15 K	1241.52	–	–	–
[1], 303.15 K	1238.15	–	–	112.9
[1], 308.15 K	1234.77	–	–	–
[1], 313.15 K	1231.4	–	–	69
[1], 318.15 K	1228.03	–	–	–
[1], 323.15 K	–	–	–	44.6
[1], 328.15 K	1221.33	–	–	–
[1], 333.15 K	1218	–	–	31.7
[1], 338.15 K	1214.69	–	–	–
[1], 343.15 K	1211.38	–	–	–
[1], 348.15 K	1208.09	–	–	–
[1], 353.15 K	1204.82	–	–	–
[1], 358.15 K	1201.56	–	–	–
[1], 363.15 K	1198.31	–	–	–
[2], 283.15 K	–	1.5018	–	–
[2], 293.15 K	–	1.4996	–	–
[2], 303.15 K	–	1.4977	–	–
[2], 313.15 K	–	1.4949	–	–

CCn1cc[n+](C)c1.CO[PH](=O)[O-] [1-ethyl-3-methylimidazolium methyl phosphonate]
Settings	mass density [kg/m3]	refractive index	surface tension liquid-gas [mN/m]	viscosity [mPa·s]
[1], 273.15 K	1208.75	–	–	563.9
[1], 278.15 K	1205.29	–	–	379.6
[1], 283.15 K	1201.82	–	–	266.6
[1], 288.15 K	1198.42	–	–	193.2
[1], 293.15 K	1195.12	–	45.49	143.1
[1], 298.15 K	1191.82	–	–	–
[1], 303.15 K	1188.5	–	–	83.4
[1], 308.15 K	1185.21	–	–	–
[1], 313.15 K	1181.92	–	–	53.9
[1], 318.15 K	1178.65	–	–	–
[1], 323.15 K	1175.39	–	–	36.4
[1], 328.15 K	1172.14	–	–	–
[1], 333.15 K	1168.89	–	–	27.4
[1], 338.15 K	1165.66	–	–	–
[1], 343.15 K	1162.45	–	–	–
[1], 348.15 K	1159.25	–	–	–
[1], 353.15 K	1156.06	–	–	–
[1], 358.15 K	1152.9	–	–	–
[1], 363.15 K	1149.73	–	–	–
[2], 283.15 K	–	1.4969	–	–
[2], 293.15 K	–	1.4935	–	–
[2], 303.15 K	–	1.4928	–	–
[2], 313.15 K	–	1.4902	–	–

CCCCCCCCOS(=O)(=O)[O-].CCn1cc[n+](C)c1 [1-ethyl-3-methylimidazolium octyl sulfate]
Settings	mass density [kg/m3]	refractive index	surface tension liquid-gas [mN/m]	viscosity [mPa·s]
[1], 273.15 K	1111.56	–	–	3894.8
[1], 278.15 K	1108	–	–	2429.9
[1], 283.15 K	1104.34	–	–	1578.5
[1], 288.15 K	1100.82	–	–	1045.1
[1], 293.15 K	1097.48	–	31	717.8
[1], 298.15 K	1094.15	–	–	–
[1], 303.15 K	1090.83	–	–	368.1
[1], 308.15 K	1087.52	–	–	–
[1], 313.15 K	1084.2	–	–	208.1
[1], 318.15 K	1080.97	–	–	–
[1], 323.15 K	–	–	–	126.2
[1], 328.15 K	1074.55	–	–	–
[1], 333.15 K	1071.34	–	–	80.9
[1], 338.15 K	1068.14	–	–	–
[1], 343.15 K	1064.94	–	–	–
[1], 348.15 K	1061.76	–	–	–
[1], 353.15 K	1058.59	–	–	–
[1], 358.15 K	1055.42	–	–	–
[1], 363.15 K	1052.26	–	–	–
[2], 283.15 K	–	1.4786	–	–
[2], 293.15 K	–	1.4766	–	–
[2], 303.15 K	–	1.4737	–	–
[2], 313.15 K	–	1.4712	–	–
